Melting point data for 88 molecules are collected here from a melting point compilation (Tetko et al.; mined from patent text by program, amines drawn as free bases though some values may be those of a salt).

For orientation: melting point means the temperature of the solid-liquid transition. Regarding `Nc1cc(OCC2CC=CCC2)cc(N)n1` (stereo not drawn), the melting point amounted to 89 °C.

`COc1cc(C#N)c(N=C(C)N(C)C)cc1OC` came in with a melting point of 94 to 96 °C.

`CCOCc1nc2c(N)nc3cc(OCc4ccccc4OC)ccc3c2n1CC(C)C`: the melting point lay within 206 to 207 °C.

Molecule `Nc1c(C(=O)c2cccc(C(=O)O)c2)[nH]c2cc(Cl)ccc12` came in with a melting point of 263 to 270 °C.

`OC(c1ccccc1)(c1ccncc1)c1ccc(F)cc1` (stereo not drawn): the melting point fell in the range of 189 to 192 °C.

As for `Cc1cccc(Nc2ccccc2C(=O)OCc2ccccn2)c1C`, the melting point lay in the range of 63 to 64 °C.

`O=C(c1ccc2nonc2c1)N1C2CCCC1COC2` returned a melting point of 128 to 130 °C.

`OCCCC#Cc1ccc2ccccc2c1` had a melting point of 37 to 38 °C.

With `O=C(O)Cc1ccccc1OCCNC(=O)C1Cc2ccccc2N1S(=O)(=O)c1ccc(-c2cccc(C(F)(F)F)c2)cc1` (stereo not drawn), the melting point lay within 131 to 134 °C.

The molecule `COc1cc2ncc(C(=O)NCc3ccc(Cl)cc3)c(O)c2cc1OC` displayed a melting point of 184 °C.

In turn, `Cc1cc(C)c(CC(=O)NNC(=O)OC(C)(C)C)c(C)c1` displayed a melting point of 138 to 140 °C.

`CC(=O)N(C)c1ccc(CO)cc1` registered a melting point of 83.5 to 85.5 °C.

As to `Cc1[nH]c(/C=C2\C(=O)Nc3cc(NC(=O)c4c[nH]cc(-c5ccc(F)cc5)c4=O)ccc32)c(C)c1CC(=O)N1CCOCC1`, the melting point was found to be 235 °C.

In turn, `CCN1C(=O)CCC(C)(C)c2cc(Nc3ncc(Cl)c(N[C@H]4[C@@H](C(N)=O)[C@@H]5C=C[C@H]4C5)n3)c(OC)cc21` showed a melting point of 156 to 166 °C.

Molecule `CCC(C)c1cc(Cl)cc(Cl)c1OCC(=O)NCCCCNC(=O)OC(C)(C)C` (stereo not drawn) registered a melting point of 50 °C.

On to `Cc1nc(C#N)sc1-c1ccncc1`, for which the melting point fell in the range of 169 to 170 °C.

As for `CCOC(=O)c1sc(Oc2ccc(NS(=O)(=O)c3ccc(C)cc3)cc2)c2c1CCc1cnn(C)c1-2`, the melting point lay within 201 to 202 °C.

The molecule `CC(C)Oc1ccc2c(c1)N(C)C(=O)N(c1ccc(CC(=O)O)cc1)S2(=O)=O` yielded a melting point of 232 to 233 °C.

The molecule `N#Cc1c2c(cc3ccc(O)cc13)-c1ccc(O)cc1CO2` returned a melting point of more than 280 °C.

`O=C1CCCN(C(=O)c2ccc(Cl)cc2)C(=O)CCc2cc(Cl)ccc21` came in with a melting point of 141 to 143 °C.

For the molecule `COc1cc(C)cc(OC)c1NC(=O)CNC(=O)OC(C)(C)C`, the melting point was found to be 146 °C.

Take `Cc1ccc2c(c1)CCCN2CC(NS(=O)(=O)c1c(Cl)cc(Cl)cc1Cl)C(C)C` (stereo not drawn): the melting point was in the range of 144 to 145 °C.

In turn, `COc1ccc(C(O)CN2CCN(C(c3ccccc3)c3ccccc3)CC2)c(OC)c1OC` (stereo not drawn) gave a melting point of 128 °C.

With `C=C[Si](C)(c1ccccc1)c1cccc(Cl)c1C(=O)NCC` (stereo not drawn), the melting point lay within 85 to 87 °C.

With `CC(CO)C1CCC2C3CC=C4CC(O)CC(O)C4(C)C3CCC12C` (stereo not drawn), the melting point was 205 to 207 °C.

`NC(=O)N1CC(Oc2cccc(C(F)(F)F)c2)C1` gave a melting point of 151 to 152 °C.

`CSc1ccc(Oc2ccc([N+](=O)[O-])cc2)cc1`: the melting point is 59 to 61 °C.

In turn, `CCCCc1nn2ccccc2c1C(=O)c1ccccc1C#N` displayed a melting point of 116 °C.

Molecule `O=S1(=O)NN=Cc2ccsc21` gave a melting point of 125 to 127 °C.

`CCOCOCCCOn1cnc2c(=O)[nH]c(N)nc21`: the melting point was 242 to 245 °C.

`CC(C)(C)OC(=O)CCc1ccc(-c2nc(=O)c3ccccc3s2)nc1C#N` showed a melting point of 196 to 197 °C.

`O=C1Nc2cc(CN3CC=C(c4ccccc4)CC3)ccc2OC1F` (stereo not drawn) had a melting point of 239 °C.

`COc1cc2ccc(C(=O)CCC(=O)O)cc2cc1OC` yielded a melting point of 215 to 229 °C.

In the case of `COc1ccc(Cl)cc1CC1CNC(=O)CN(C(=O)Nc2cccc(NC(C)=O)c2)C1=O` (stereo not drawn), the melting point lay in the range of 130 to 131 °C.

The molecule `Cc1ccc(Sc2c(N)cc(C(=O)O)cc2S)cc1` showed a melting point of 178 to 182 °C.

Turning to `CC1(C)Cc2cccc(Cl)c2C=[N+]1[O-]`, the melting point fell in the range of 110 to 111 °C.

`CCc1cnc2c(NC(=O)c3c(Cl)cccc3Cl)cccc2c1CCC(N)=O` registered a melting point of 235 to 236 °C.

The molecule `Cc1c(C(F)F)cc(-c2ccc(S(C)(=O)=O)cc2)n1-c1ccc(F)cc1` gave a melting point of 136 to 138 °C.

`C#CCN(CC#C)c1cc(OC)c(OC)c(OC)c1` returned a melting point of 62 to 63 °C.

For `CC(O)=C(C(=O)OC(c1ccccc1)c1ccccc1)N1C(=O)C(NC(=O)C(NC(=O)OC(C)(C)C)c2ccccc2)C1SS(=O)(=O)c1ccc(C)cc1` (stereo not drawn), the melting point is 182 to 184 °C.

Consider `CCC(C)N(C)C(=O)c1cc(-c2ccccc2)c2ccsc2c1` (stereo not drawn), for which the melting point was found to be 84 °C.

Turning to `CCOC(=O)Nc1ccccc1NS(=O)(=O)c1ccc(OC)cc1`, the melting point is 118 to 119 °C.

Take `CN(CCCNC(=O)c1ccccc1)CCCc1c[nH]c2ccccc12`: the melting point fell in the range of 73 to 74 °C.

Regarding `C=CC(=O)Oc1c(C(C)c2cc(C(C)(C)CC)cc(C(C)(C)CC)c2O)cc(C(C)(C)CC)cc1C(C)(C)CC` (stereo not drawn), the melting point lay in the range of 119 to 121 °C.

`COc1cccc(C2CCCN2S(=O)(=O)c2ccc(Cl)cc2)c1` (racemic) came in with a melting point of 95 °C.

`COc1cc(C(=O)NS(=O)(=O)c2ccccc2C)ccc1Cc1cccc2ccc(CCCCC(=O)N(C)C)cc12`: the melting point lay within 88 to 93 °C.

The molecule `Cc1cc(-c2cccc(Cl)c2)nn2cnnc12` displayed a melting point of 173 to 176 °C.

Molecule `CCCn1cc(Cc2ccc(C(=O)NS(=O)(=O)c3ccccc3C)cc2OC)c2cc(CC3CCCN(C)C3=O)ccc21` (stereo not drawn) came in with a melting point of 120 to 128 °C.

The molecule `O=[N+]([O-])c1ccc2nc(-c3ccc(Cl)cc3)sc2c1` gave a melting point of 227 to 232 °C.

Take `COc1c(N2CCC(C(O)CO)CC2)c(F)cc2c(=O)c(C(=O)O)cn(C3CC3)c12` (stereo not drawn): the melting point fell in the range of 200 to 204 °C.

Regarding `CCOCCc1c(O)n2c3c(=O)n(C)c(=O)n(C)c3nc2n(Cc2ccccc2)c1=O`, the melting point lay within 156 to 158 °C.

`O=C(Nc1ccc(OC(F)(F)F)cc1)c1cccc(Cl)c1[N+](=O)[O-]` registered a melting point of 171 to 172 °C.

As to `Cc1nc(S)c2[nH]cnc2n1`, the melting point was more than 300 °C.

Regarding `O=[N+]([O-])c1cc(S(=O)(=O)N2CCC(O)C2)sc1Cl` (racemic), the melting point came to 96 °C.

In turn, `CN1CCC(O)(c2ccccc2Cc2ccccc2)C1` (stereo not drawn) returned a melting point of 108 to 109 °C.

In the case of `O=C1CC2(CN1)CC(=O)c1cc(Cl)ccc12` (stereo not drawn), the melting point lay within 220 to 222 °C.

Molecule `CN(C(=O)CN(C(=O)CNC(=O)Nc1cccc(C#N)c1)c1ccccc1)c1ccccc1` came in with a melting point of 204 °C.

`O=C(OCc1ccccc1)c1cc(I)ccc1OCc1ccccc1` yielded a melting point of 72 to 73 °C.

`Cc1cc(SCc2sc(-c3ccc(C(F)(F)F)cc3)nc2C)cc(C)c1OCC(=O)O` came in with a melting point of 157 to 158 °C.

As to `c1ccc(-c2nn(CCCCCCCCc3nn[nH]n3)c(-c3ccccc3)c2-c2ccccc2)cc1`, the melting point lay within 158 to 160 °C.

The molecule `CC(=O)OC1CCCc2cnc3ccc(OCc4ccccc4[N+](=O)[O-])cc3c21` (stereo not drawn) had a melting point of 125 to 127 °C.

Regarding `CC(=Cc1ccc2[nH]ccc2c1)C(=O)O`, the melting point lay in the range of 207 to 209 °C.

Take `Fc1ncccc1-c1cscc1Br`: the melting point fell in the range of 48 to 50 °C.

`NC1=C(N)C(=O)C(N)=C(N)C1=O` yielded a melting point of 260 to 262 °C.

For the molecule `Cn1c(=O)[nH]c2ccc(Br)cc21`, the melting point fell in the range of 237 to 238 °C.

The molecule `CCCCC1(CCCC)CCc2c(O)cccc2C1O` (stereo not drawn) displayed a melting point of 82 to 83 °C.

Regarding `O=C(Nc1ccc2c(c1)nc1n2CCC1)c1cc2cc(C(F)(F)F)cnc2n1Cc1ccccc1`, the melting point lay within 268 to 270 °C.

As to `COc1ccc(-n2nc(C(=O)CCCO[N+](=O)[O-])cc2-c2ccc(S(C)(=O)=O)cc2)cc1`, the melting point was 132 to 134 °C.

As for `O=S1(=O)CCC(c2cc(F)ccc2F)(S(=O)(=O)c2ccc(Cl)cc2)CC1`, the melting point lay in the range of 204 to 206 °C.

In the case of `CCOC(=O)C1=C(C)NC(=O)N(C(=O)CC)C1c1cccc([N+](=O)[O-])c1` (stereo not drawn), the melting point was 152 to 154 °C.

In the case of `COC=Nc1cc(-c2ncon2)nn1-c1c(Cl)cc(C(F)(F)F)cc1Cl`, the melting point is 113 to 114 °C.

Consider `CCN1C(=O)CC(=O)N(c2ccccc2)c2cc(Cl)ccc21`, for which the melting point fell in the range of 220 to 222 °C.

For the molecule `CCOC1=NS(=O)(=O)c2ccc([N+](=O)[O-])cc21`, the melting point was 151 to 154 °C.

As for `COc1ccc(C(F)(F)F)cc1NC(=O)CCl`, the melting point came out at 94.7 °C.

Molecule `CC(C)C(C(=O)O)N(Cl)Cl` (stereo not drawn) returned a melting point of 44 to 46 °C.

`COC(=O)C(C)(C)OCC#Cc1cc(C(F)(F)F)ccc1NS(=O)(=O)c1ccc2c(c1)CCN2C(C)=O` yielded a melting point of 134 to 136 °C.

Consider `CCN(CC)C(=O)c1cc(-c2ccccc2)ccc1-c1ccccc1`, for which the melting point was in the range of 128 to 130 °C.

For `CCOc1ccc(S(=O)(=O)N(CC(=O)NN=C2C(=O)Nc3ccccc32)c2ccc(C)cc2)cc1`, the melting point was 130 to 131 °C.

Consider `CCOC(=O)c1ccc2c(c1)c(-c1ccccc1)nn2CCC#N`, for which the melting point is 99 to 102 °C.

In the case of `CC(C)(C)OC(=O)[C@@H]1N(S(=O)(=O)c2ccc(O)cc2)CCSC1(C)C`, the melting point was 171 °C.

In turn, `Cn1nc(-c2cccc(C(F)(F)F)c2)c(Br)c1C(=O)O` registered a melting point of 182 to 184 °C.

`CC(C)(C)c1cc(CC(C)(C)C2SCCS2)cc(C(C)(C)C)c1O` showed a melting point of 119 °C.

In the case of `OC(c1ccc(C(F)(F)F)cc1)c1ccc(C(F)(F)F)cc1`, the melting point was 80 °C.

`CS(=O)(=O)N1CCC(NC(=O)Nc2cccc(C(F)(F)F)c2)CC1` registered a melting point of 226 to 229 °C.

For `Oc1ccccc1N1CCN(Cc2nc3ccccc3[nH]2)CC1`, the melting point lay in the range of 208 to 216 °C.

With `CN1CCN(S(=O)(=O)NC(Cc2ccccc2)C(=O)O)CC1` (stereo not drawn), the melting point is more than 200 °C.

In turn, `CC1(C)CCc2c(N3CCCC3)nc3sc4c(NCCN5CCOCC5)ncnc4c3c2C1` gave a melting point of 173 to 174 °C.

In turn, `Cn1c(/C=C/C=O)c(-c2ccccc2)c2ccccc2c1=O` yielded a melting point of 228 °C.
